Measurements published in patent US10471046B2, “Method for treating, preventing, or reducing the risk of skin infection” (Melinta Subsidiary Corp., priority 2014, dated 2019).
Converted amounts (≈) assume the structure as drawn. Read-outs that look alike come from different tables or passages of the source.

Tested on: S. aureus
Assay: Minimum inhibitory concentrations (MICs) for S. aureus of exemplary compounds (Table 2)
Format: cell-based
Conditions: Staphylococcus aureus, read-out: MICs
Description: Exemplary compounds in accordance with the invention are listed in Table 2 with their minimum inhibitory concentrations (MICs) (μg/mL) for S. aureus:
Furthermore, the antibiotic compounds can be assayed for anti-proliferative or anti-infective properties on a cellular level. For example, where the target organism is a microorganism, the activity of compounds of interest can be assayed by growing the microorganisms of interest in media either containing or lacking the compound. Growth inhibition can be indicative that the molecule could be acting as a protein synthesis inhibitor. […] For this purpose, a panel of bacterial strains can be assembled to include a variety of target pathogenic species, some containing resistance mechanisms that have been characterized. Use of such a panel of organisms permits the determination of structure-activity relationships not only in regards to potency and spectrum, but also with a view to obviating resistance mechanisms. The assays can be performed in microtiter trays according to conventional methodologies as published by The National Committee for Clinical Laboratory Standards (NCCLS) guidelines (NCCLS. M7-A5-Methods for Dilution Antimicrobial Susceptibility Tests for Bacteria That Grow Aerobically; Approved Standard-Fifth Edition. NCCLS Document M100-S12/M7 (ISBN 1-56238-394-9)).

[1] = minimum inhibitory concentrations for S. aureus

| Structure (SMILES) | MIC [1] [µg/mL] | MIC [µg/mL] |
| --- | --- | --- |
| CC(=O)NC[C@H]1CN(c2ccc(-c3ccc(NC(=O)NCc4ccccn4)cc3)c(F)c2)C(=O)O1 [Compound 6005, N-{3-[2-Fluoro-4′-(3-pyridin-2-ylmethyl-ureido)-biphenyl-4-yl]-2-oxo-oxazolidin-5-(S)-ylmethyl}-acetamide] | 1 (≈ 2.09 µM) |  |
| CC(=O)NC[C@H]1CN(c2ccc(-c3ccc(CNCc4sc(C)nc4C)cc3)c(F)c2)C(=O)O1 [Compound 4108, N-[3-(4′-{[(2,4-Dimethyl-thiazol-5-ylmethyl)-amino]-methyl}-2-fluoro-biphenyl-4-yl)-2-oxo-oxazolidin-5-(S)-ylmethyl]-acetamide] | 4 (≈ 8.29 µM) |  |
| CC(=O)NC[C@H]1CN(c2ccc(-c3ccc(CNC(C)c4cnn[nH]4)cc3)c(F)c2)C(=O)O1 (mixture of isomers) [Compound 4278, N-[3-(2-Fluoro-4′-{[1-(R/S)-(3H-[1,2,3]triazol-4-yl)-ethylamino]-methyl}-biphenyl-4-yl)-2-oxo-oxazolidin-5-(S)-ylmethyl]-acetamide] | 2 |  |
| CC(=O)NC[C@H]1CN(c2ccc(-c3ccc(CNCc4cncnc4)cc3)c(F)c2)C(=O)O1 [Compound 4203, N-[3-(2-Fluoro-4′-{[(pyrimidin-5-ylmethyl)-amino]-methyl}-biphenyl-4-yl)-2-oxo-oxazolidin-5-(S)-ylmethyl]-acetamide] |  | 1 (≈ 2.22 µM) |
| CC(=O)NC[C@H]1CN(c2ccc(-c3ccc(CCNCc4ccncc4)cc3)c(F)c2)C(=O)O1 [Compound 4149, N-[3-(2-Fluoro-4′-{2-[(pyridin-4-ylmethyl)-amino]-ethyl}-biphenyl-4-yl)-2-oxo-oxazolidin-5-(S)-ylmethyl]-acetamide] | 1 (≈ 2.16 µM) |  |
| CC(=O)NC[C@H]1CN(c2ccc(-c3ccc(CNCc4cc5ccccc5n4C)cc3)c(F)c2)C(=O)O1 [Compound 4049, N-[3-(2-Fluoro-4′-{[(1-methyl-1H-indol-2-ylmethyl)-amino]-methyl}-biphenyl-4-yl)-2-oxo-oxazolidin-5-(S)-ylmethyl]-acetamide] | 1 (≈ 2 µM) |  |
| CC(=O)NC[C@H]1CN(c2ccc(-c3ccc(CNCc4cc(C)c(C)o4)cc3)c(F)c2)C(=O)O1 [Compound 4085, N-[3-(4′-{[(4,5-Dimethyl-furan-2-ylmethyl)-amino]-methyl}-2-fluoro-biphenyl-4-yl)-2-oxo-oxazolidin-5-(S)-ylmethyl]-acetamide] | 4 (≈ 8.59 µM) |  |
| CC(=O)NC[C@H]1CN(c2ccc(-c3ccc(CNCc4cc(Br)no4)cc3)c(F)c2)C(=O)O1 [Compound 4253, N-[3-(4′-{[(3-Bromo-isoxazol-5-ylmethyl)-amino]-methyl}-2-fluoro-biphenyl-4-yl)-2-oxo-oxazolidin-5-(S)-ylmethyl]-acetamide] | 0.5 (≈ 0.966 µM) |  |
| CC(=O)NC[C@H]1CN(c2ccc(-c3ccc(CNCc4[nH]cnc4C)cc3)c(F)c2)C(=O)O1 [Compound 4082, N-[3-(2-Fluoro-4′-{[(5-methyl-3H-imidazol-4-ylmethyl)-amino]-methyl}-biphenyl-4-yl)-2-oxo-oxazolidin-5-(S)-ylmethyl]-acetamide] | 32 (≈ 70.9 µM) |  |
| CC(=O)NC[C@H]1CN(c2ccc(-c3ccc(COCc4ccccn4)nc3)c(F)c2)C(=O)O1 [Compound 4195, N-(3-{3-Fluoro-4-[6-(pyridin-2-ylmethoxymethyl)-pyridin-3-yl]-phenyl}-2-oxo-oxazolidin-5-(S)-ylmethyl)-acetamide] | 1 (≈ 2.22 µM) |  |
| CC(=O)NC[C@H]1CN(c2ccc(-c3ccc(CNCC4CCOC4)cc3)c(F)c2)C(=O)O1 (stereo partly drawn) [Compound 4219, N-[3-(2-Fluoro-4′-{[(tetrahydro-furan-3-ylmethyl)-amino]-methyl}-biphenyl-4-yl)-2-oxo-oxazolidin-5-(S)-ylmethyl]-acetamide] | 8 (≈ 18.1 µM) |  |
| CC(=O)NC[C@H]1CN(c2ccc(-c3ccc(CN(C)Cc4ccoc4)cc3)c(F)c2)C(=O)O1 [Compound 4061, N-(3-{2-Fluoro-4′-[(furan-3-ylmethyl-methyl-amino)-methyl]-biphenyl-4-yl}-2-oxo-oxazolidin-5-(S)-ylmethyl)-acetamide] | 4 (≈ 8.86 µM) |  |
| CC(=O)NC[C@H]1CN(c2ccc(-c3ccc(CNCc4ccncc4)cc3)nc2)C(=O)O1 [Compound 4134, N-{2-Oxo-3-[6-(4-{[(pyridin-4-ylmethyl)-amino]-methyl}-phenyl)-pyridin-3-yl]-oxazolidin-5-(S)-ylmethyl}-acetamide] | 16 (≈ 37.1 µM) |  |
| CC(=O)NC[C@H]1CN(c2ccc(-c3ccc([C@H](CO)n4ccnn4)cc3)c(F)c2)C(=O)O1 [Compound 1073, N-{3-[2-Fluoro-4′-(2-hydroxy-1-(R)-[1,2,3]triazol-1-yl-ethyl)-biphenyl-4-yl]-2-oxo-oxazolidin-5-(S)-ylmethyl}-acetamide] | 1 (≈ 2.28 µM) |  |
| CC(=O)NC[C@H]1CN(c2ccc(-c3ccc(CNCC4CCC=CO4)cc3)c(F)c2)C(=O)O1 (stereo partly drawn) [Compound 4131, N-[3-(4′-{[(3,4-Dihydro-2H-pyran-2-ylmethyl)-amino]-methyl}-2-fluoro-biphenyl-4-yl)-2-oxo-oxazolidin-5-(S)-ylmethyl]-acetamide] | 1 (≈ 2.21 µM) |  |
| CC(=O)NC[C@H]1CN(c2ccc(-c3ccc([C@H](O)CN(CCCF)Cc4ccccc4)cc3)c(F)c2)C(=O)O1 [Compound 4247, N-[3-(4′-{2-[Benzyl-(3-fluoro-propyl)-amino]-1-(S)-hydroxy-ethyl}-2-fluoro-biphenyl-4-yl)-2-oxo-oxazolidin-5-(S)-ylmethyl]-acetamide] | 8 (≈ 14.9 µM) |  |
| CC(=O)NC[C@H]1CN(c2ccc(-c3ccc(C[S+]([O-])c4ccncc4)cc3)c(F)c2)C(=O)O1 (stereo partly drawn) [Compound 2022, N-{3-[2-Fluoro-4′-(pyridine-4-sulfinylmethyl)-biphenyl-4-yl]-2-oxo-oxazolidin-5-(S)-ylmethyl}-acetamide] | 2 (≈ 4.28 µM) |  |

More lines, in order of falling MIC [1], values ahead:

| MIC [1] [µg/mL] | Structure (SMILES) | MIC [µg/mL] |
| --- | --- | --- |
| 8 (≈ 17.2 µM) | CC(=O)NC[C@H]1CN(c2ccc(-c3ccc(CNCc4cc(C)oc4C)cc3)c(F)c2)C(=O)O1 [Compound 4103, N-[3-(4′-{[(2,5-Dimethyl-furan-3-ylmethyl)-amino]-methyl}-2-fluoro-biphenyl-4-yl)-2-oxo-oxazolidin-5-(S)-ylmethyl]-acetamide] |  |
| 4 (≈ 9.67 µM) | CC(=O)NC[C@H]1CN(c2ccc(-c3ccc(CNCC4CO4)cc3)c(F)c2)C(=O)O1 (stereo partly drawn) [Compound 4210, N-(3-{2-Fluoro-4′-[(oxiranylmethyl-amino)-methyl]-biphenyl-4-yl}-2-oxo-oxazolidin-5-(S)-ylmethyl)-acetamide] |  |
| 4 (≈ 7.19 µM) | CC(=O)NC[C@H]1CN(c2ccc(-c3ccc(CNCCCc4cn(Cc5ccccc5)nn4)cc3)c(F)c2)C(=O)O1 [Compound 4256, N-[3-(4′-{[3-(1-Benzyl-1H-[1,2,3]triazol-4-yl)-propylamino]-methyl}-2-fluoro-biphenyl-4-yl)-2-oxo-oxazolidin-5-(S)-ylmethyl]-acetamide] |  |
| 2 (≈ 4.28 µM) | CC(=O)NC[C@H]1CN(c2ccc(-c3ccc(Cn4nnc(C(N)=O)c4N)cc3)c(F)c2)C(=O)O1 [Compound 1026, 1-{4′-[5-(S)-(Acetylamino-methyl)-2-oxo-oxazolidin-3-yl]-2′-fluoro-biphenyl-4-ylmethyl}-5-amino-1H-[1,2,3]triazole-4-carboxylic acid amide] |  |
| 2 (≈ 4.01 µM) | CC(=O)NC[C@H]1CN(c2ccc(-c3ccc(S(=O)(=O)NCc4ccncc4)cc3)c(F)c2)C(=O)O1 [Compound 3005, N-(3-{2-Fluoro-4′-[(pyridin-4-ylmethyl)-sulfamoyl]-biphenyl-4-yl}-2-oxo-oxazolidin-5-(S)-ylmethyl)-acetamide] |  |
| 2 (≈ 4.33 µM) | CC(=O)NC[C@H]1CN(c2ccc(-c3ccc(CN4CCCC(F)(F)C4)cc3)c(F)c2)C(=O)O1 [Compound 1097, N-{3-[4′-(3,3-Difluoro-piperidin-1-ylmethyl)-2-fluoro-biphenyl-4-yl]-2-oxo-oxazolidin-5-(S)-ylmethyl}-acetamide] |  |
| 2 (≈ 4.32 µM) | CC(=O)NC[C@H]1CN(c2ccc(-c3ccc(CNCc4cccc(C)n4)cc3)c(F)c2)C(=O)O1 [Compound 4072, N-[3-(2-Fluoro-4′-{[(6-methyl-pyridin-2-ylmethyl)-amino]-methyl}-biphenyl-4-yl)-2-oxo-oxazolidin-5-(S)-ylmethyl]-acetamide] |  |
| 2 (≈ 4.55 µM) | CC(=O)NC[C@H]1CN(c2ccc(-c3ccc(CNCc4cnoc4)nc3)c(F)c2)C(=O)O1 [Compound 4252, N-{3-[3-Fluoro-4-(6-{[(isoxazol-4-ylmethyl)-amino]-methyl}-pyridin-3-yl)-phenyl]-2-oxo-oxazolidin-5-(S)-ylmethyl}-acetamide] |  |
| 1 (≈ 2.28 µM) | CC(=O)NC[C@H]1CN(c2ccc(-c3ccc(CNCc4ccon4)cc3)c(F)c2)C(=O)O1 [Compound 4183, N-[3-(2-Fluoro-4′-{[(isoxazol-3-ylmethyl)-amino]-methyl}-biphenyl-4-yl)-2-oxo-oxazolidin-5-(S)-ylmethyl]-acetamide] |  |
| 1 (≈ 1.79 µM) | CC(=O)NC[C@H]1CN(c2ccc(-c3ccc(Cn4cnc5c(NCC(F)(F)F)ncnc54)cc3)c(F)c2)C(=O)O1 [Compound 1104, N-(3-{2-Fluoro-4′-[6-(2,2,2-trifluoro-ethylamino)-purin-9-ylmethyl]-biphenyl-4-yl}-2-oxo-oxazolidin-5-(S)-ylmethyl)-acetamide] |  |
| 0.5 (≈ 1.19 µM) | O=C1O[C@@H](Cn2ccnn2)CN1c1ccc(-c2ccc(Cn3cccn3)cc2)c(F)c1 [Compound 1085, 3-(2-Fluoro-4′-pyrazol-1-ylmethyl-biphenyl-4-yl)-5-(R)-[1,2,3]triazol-1-ylmethyl-oxazolidin-2-one] |  |
| 0.25 (≈ 0.609 µM) | CC(=O)NC[C@H]1CN(c2ccc(-c3ccc(Cn4ncnn4)cc3)c(F)c2)C(=O)O1 [Compound 1056, N-[3-(2-Fluoro-4′-tetrazol-2-ylmethyl-biphenyl-4-yl)-2-oxo-oxazolidin-5-(S)-ylmethyl]-acetamide] |  |
